Data on 17 compounds can be found in ChEMBL document CHEMBL3259764, “Pim kinase inhibitory and antiproliferative activity of a novel series of meridianin C derivatives” (Bioorg Med Chem Lett, 2014).

Data set [1] deals with Serine/threonine-protein kinase pim-2 (Homo sapiens, UniProt Q9P1W9). Kind of data set: Inhibition of PIM2 kinase (unknown origin) using 5-FAM-labeled BAD peptide as substrate after 90 mins by fluorescence polarization assay.
The target of data set [2] is Serine/threonine-protein kinase pim-3 (Homo sapiens, UniProt Q86V86). Kind of data set: Inhibition of PIM3 kinase (unknown origin) using 5-FAM-labeled BAD peptide as substrate after 90 mins by fluorescence polarization assay. For orientation: In fluorescence polarisation assays a small probe gives low polarisation when free and higher when bound to something large.
Data set [3] deals with Serine/threonine-protein kinase pim-1 (Homo sapiens, UniProt P11309). Kind of data set: Inhibition of PIM1 kinase (unknown origin) using 5-FAM-labeled BAD peptide as substrate after 90 mins by fluorescence polarization assay.
Another data set has as its system K562. Kind of data set: Antiproliferative activity against human K562 cells assessed as cell viability after 24 hrs by MTS assay. The data set is classed as functional, cell-based. To be noted: K562, 24 h. A general note: Tetrazolium dyes change colour on reduction, which living cells bring about.
Data set [4] can be described thus: Antiproliferative activity against human Jurkat E6-1 cells assessed as cell viability after 24 hrs by MTS assay. The data set is classed as functional, cell-based.
The subject of the next data set is Caco-2. Kind of data set: Permeability across human Caco2 cells. The data set is classed as ADME, cell-based. Background: Caco-2 cells form a polarised layer with tight junctions and transporters.
A short description of data set [5]: Antiproliferative activity against human MV411 cells assessed as cell viability after 24 hrs by MTS assay. The data set is classed as functional, cell-based. To be noted: MV4-11, 24 h.
Data set [6] addresses CDK2/Cyclin A2 (Homo sapiens) (UniProt P24941+P20248). In words: Inhibition of CDK2/cyclinA kinase (unknown origin) at 10 uM. The data set is classed as protein-complex assay.

Chain of Serine/threonine-protein kinase pim-1 (P11309 whole entry): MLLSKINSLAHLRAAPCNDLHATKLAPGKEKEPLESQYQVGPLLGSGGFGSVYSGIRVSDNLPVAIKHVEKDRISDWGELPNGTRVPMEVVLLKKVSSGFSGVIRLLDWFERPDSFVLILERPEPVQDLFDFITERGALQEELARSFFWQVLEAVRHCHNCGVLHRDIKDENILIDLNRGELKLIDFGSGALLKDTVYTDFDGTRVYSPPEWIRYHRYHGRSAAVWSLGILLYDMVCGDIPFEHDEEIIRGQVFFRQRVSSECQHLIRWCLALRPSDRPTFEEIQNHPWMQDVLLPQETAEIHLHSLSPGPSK
Chain of Serine/threonine-protein kinase pim-2 (Q9P1W9 whole entry): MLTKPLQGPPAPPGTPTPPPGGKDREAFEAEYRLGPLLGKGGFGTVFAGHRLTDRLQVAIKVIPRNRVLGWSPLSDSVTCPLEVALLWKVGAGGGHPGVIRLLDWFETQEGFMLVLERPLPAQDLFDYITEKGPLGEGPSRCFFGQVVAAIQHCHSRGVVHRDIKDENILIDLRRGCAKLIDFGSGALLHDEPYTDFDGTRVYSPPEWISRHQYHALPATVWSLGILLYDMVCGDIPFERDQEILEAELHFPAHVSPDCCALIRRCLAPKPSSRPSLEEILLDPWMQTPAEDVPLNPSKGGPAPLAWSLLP

A word on the IC50: it is the concentration at which inhibition is half-maximal. A lower IC50 goes with greater potency. Regarding `CN(C)CCCOc1cncc(-c2ccc3[nH]cc(-c4ccnc(N)n4)c3c2)n1`, the results for the IC50 in data set [1], in data set [2] and in data set [3] were 540 nM, 20.5 nM and 18.7 nM, respectively.
In the case of `CN(C)CCCNc1cncc(-c2ccc3[nH]cc(-c4ccnc(N)n4)c3c2)n1`, the IC50 was 630 nM in data set [1], 31.3 nM in data set [2] and 18.3 nM in data set [3].
In data set [3], `CN(C)/C=C/C(=O)c1c[nH]c2ccc(-c3cncc(OCCN(C)C)n3)cc12` yielded an IC50 of 1130 nM. That is a single-digit micromolar value.
The same measure, in the same setting: the value for `CN(C)CCNc1cncc(-c2ccc3[nH]cc(C(=O)C4CC4)c3c2)n1` was 270 nM.
For `CCN(CC)CCCNc1cncc(-c2ccc3[nH]cc(-c4ccnc(N)n4)c3c2)n1`, the figures for the IC50 in data set [1], in data set [2] and in data set [3] were 920 nM, 30.2 nM and 17.2 nM, respectively.
Broadly, the EC50 is the midpoint of the concentration-response curve. For `CCOc1cncc(-c2ccc3[nH]cc(-c4ccnc(N)n4)c3c2)n1`, the concentration for a half-maximal effect (EC50) stood at 20800 nM in the data set on K562, 15000 nM in data set [4] and 500 nM in data set [5]. Besides, in the data set with Caco-2, the permeability result is reported as “permeable”. Moreover, the IC50 in data set [1] was determined as 740 nM; in data set [2] it was 50.9 nM; in data set [3], 45.1 nM.
In turn, `Nc1nccc(-c2c[nH]c3ccc(Br)cc23)n1` [MERIDIANIN C] returned an IC50 in data set [3] of 1040 nM.
Take `CCN(CC)CCOc1cncc(-c2ccc3[nH]cc(-c4ccnc(N)n4)c3c2)n1`: the figures for the EC50 (with K562; in data set [4]; in data set [5]) were 17900 nM, 14400 nM and 3300 nM, respectively. Moreover, the IC50 is 590 nM in data set [1], 30 nM in data set [2] and 25.8 nM in data set [3].
On to `CN(C)CCN(C)c1cncc(-c2ccc3[nH]cc(-c4ccnc(N)n4)c3c2)n1`, for which the IC50 in data set [1] was 180 nM; in data set [2], 7.8 nM; in data set [3], 8 nM.
On the same counts, the results for `CCN(CC)CCNc1cncc(-c2ccc3[nH]cc(-c4ccnc(N)n4)c3c2)n1` are 310 nM, 9.9 nM and 2.8 nM.
`CN(C)CCNc1cncc(-c2ccc3[nH]cc(-c4ccnc(N)n4)c3c2)n1`: the permeability entry with Caco-2 is “permeable”. Besides, the IC50 in data set [1] is 110 nM; in data set [2] it was 6.5 nM; in data set [3], 3.4 nM.
Regarding `CN(C)CCOc1cncc(-c2ccc3[nH]cc(-c4ccnc(N)n4)c3c2)n1`, the half-maximal effective concentration (EC50) in the data set on K562 is 18500 nM; in data set [4], 13500 nM; in data set [5], 2900 nM. Moreover, the values for the IC50 in data set [1], in data set [2] and in data set [3] were 380 nM, 21.7 nM and 20.4 nM, respectively.
For orientation: inhibition means the drop in the measured response relative to a control, in per cent. A higher inhibition goes with a response far below the control. The compound `Nc1nccc(-c2c[nH]c3ccccc23)n1` returned an inhibition in data set [6] of 54%.
Regarding `CN(C)CCOc1cncc(-c2ccc3[nH]cc(C(=O)c4ccccc4)c3c2)n1`, the midpoint of inhibition in data set [3], the IC50, lay at 400 nM.
Still for that read-out and setting: next, `CC(=O)c1c[nH]c2ccc(-c3cncc(NCCN(C)C)n3)cc12`: 270 nM.
With `CCN(CC)CCCOc1cncc(-c2ccc3[nH]cc(-c4ccnc(N)n4)c3c2)n1`, the EC50 was found to be 13700 nM in the data set with K562, 10900 nM in data set [4] and 1500 nM in data set [5]. The results for the IC50 in data set [1], in data set [2] and in data set [3] were 660 nM, 55.7 nM and 34.5 nM, respectively.
On to `CN(C)/C=C/C(=O)c1c[nH]c2ccc(-c3cncc(NCCN(C)C)n3)cc12`, for which the IC50 in data set [3] came out at 370 nM.
